Data reported in PubChem BioAssay (NCI).
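GI50 = concentration required for 50% inhibition of growth. TGI is the concentration that stops growth completely.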

Assays:
Assay in all cases: NCI-60 cell line screen, 384-well format
NCI/ADR-RES ovarian = tested on: NCI/ADR-RES ovarian
UO-31 renal = tested on: UO-31 renal
MALME-3M melanoma = tested on: MALME-3M melanoma
CCRF-CEM leukemia = tested on: CCRF-CEM leukemia
M14 melanoma = tested on: M14 melanoma
COLO 205 colon = tested on: COLO 205 colon
SK-MEL-5 melanoma = tested on: SK-MEL-5 melanoma
MDA-MB-231 breast = tested on: MDA-MB-231 breast
SF-268 CNS = tested on: SF-268 CNS
LOX IMVI melanoma = tested on: LOX IMVI melanoma
KM12 colon = tested on: KM12 colon
NCI-H226 lung = tested on: NCI-H226 lung
SW-620 colon = tested on: SW-620 colon
HL-60(TB) leukemia = tested on: HL-60(TB) leukemia
HCT-15 colon = tested on: HCT-15 colon
SK-OV-3 ovarian = tested on: SK-OV-3 ovarian
SK-MEL-2 melanoma = tested on: SK-MEL-2 melanoma
NCI-H522 lung = tested on: NCI-H522 lung
MDA-MB-435 melanoma = tested on: MDA-MB-435 melanoma
K-562 leukemia = tested on: K-562 leukemia
SF-539 CNS = tested on: SF-539 CNS
MOLT-4 leukemia = tested on: MOLT-4 leukemia
786-0 renal = tested on: 786-0 renal
NCI-H23 lung = tested on: NCI-H23 lung
RXF 393 renal = tested on: RXF 393 renal
RPMI-8226 leukemia = tested on: RPMI-8226 leukemia
A549 NSCLC = tested on: A549 NSCLC
PC-3 prostate = tested on: PC-3 prostate
SR leukemia = tested on: SR leukemia
T-47D breast = tested on: T-47D breast
SF-295 CNS = tested on: SF-295 CNS
A498 renal = tested on: A498 renal
UACC-62 melanoma = tested on: UACC-62 melanoma
SK-MEL-28 melanoma = tested on: SK-MEL-28 melanoma
CAKI-1 renal = tested on: CAKI-1 renal
TK-10 renal = tested on: TK-10 renal
HT29 colon = tested on: HT29 colon
HOP-92 NSCLC = tested on: HOP-92 NSCLC
OVCAR-4 ovarian = tested on: OVCAR-4 ovarian
UACC-257 melanoma = tested on: UACC-257 melanoma
U251 glioblastoma = tested on: U251 glioblastoma
HCC-2998 colon = tested on: HCC-2998 colon
SNB-19 CNS = tested on: SNB-19 CNS
OVCAR-3 ovarian = tested on: OVCAR-3 ovarian
ACHN renal = tested on: ACHN renal
BT-549 breast = tested on: BT-549 breast
NCI-H460 NSCLC = tested on: NCI-H460 NSCLC
OVCAR-8 ovarian = tested on: OVCAR-8 ovarian
OVCAR-5 ovarian = tested on: OVCAR-5 ovarian
MDA-MB-468 breast = tested on: MDA-MB-468 breast
HOP-62 NSCLC = tested on: HOP-62 NSCLC
SN12C renal = tested on: SN12C renal
IGROV1 ovarian = tested on: IGROV1 ovarian
NCI-H322M lung = tested on: NCI-H322M lung

CN(C)C/C=C/C(=O)Nc1ccc(C(=O)N[C@@]2(C)CCC[C@@H](Nc3ncc(Cl)c(-c4c[nH]c5ccccc45)n3)C2)nc1
GI50 (NCI/ADR-RES ovarian): 202 nM | TGI (NCI/ADR-RES ovarian): 1090 nM | GI50 (UO-31 renal): 14 nM | TGI (UO-31 renal): 42 nM | GI50 (MALME-3M melanoma): 12.5 nM | TGI (MALME-3M melanoma): 26.3 nM | GI50 (CCRF-CEM leukemia): < 10 nM | TGI (CCRF-CEM leukemia): < 10 nM | GI50 (M14 melanoma): < 10 nM | TGI (M14 melanoma): 13.7 nM | GI50 (COLO 205 colon): < 10 nM | TGI (COLO 205 colon): < 10 nM | GI50 (SK-MEL-5 melanoma): < 10 nM | TGI (SK-MEL-5 melanoma): 13.3 nM | GI50 (MDA-MB-231 breast): < 10 nM | TGI (MDA-MB-231 breast): 115 nM | GI50 (SF-268 CNS): < 10 nM | TGI (SF-268 CNS): 16.2 nM | GI50 (LOX IMVI melanoma): < 10 nM | TGI (LOX IMVI melanoma): < 10 nM | GI50 (KM12 colon): < 10 nM | TGI (KM12 colon): 10.8 nM | GI50 (NCI-H226 lung): < 10 nM | TGI (NCI-H226 lung): 34.1 nM | GI50 (SW-620 colon): < 10 nM | TGI (SW-620 colon): 22.9 nM | GI50 (HL-60(TB) leukemia): < 10 nM | TGI (HL-60(TB) leukemia): < 10 nM | GI50 (HCT-15 colon): < 10 nM | TGI (HCT-15 colon): 64.6 nM | GI50 (SK-OV-3 ovarian): < 10 nM | TGI (SK-OV-3 ovarian): 85.4 nM | GI50 (SK-MEL-2 melanoma): < 10 nM | TGI (SK-MEL-2 melanoma): 10.9 nM | GI50 (NCI-H522 lung): < 10 nM | TGI (NCI-H522 lung): < 10 nM | GI50 (MDA-MB-435 melanoma): < 10 nM | TGI (MDA-MB-435 melanoma): 15.7 nM | GI50 (K-562 leukemia): < 10 nM | TGI (K-562 leukemia): 43.5 nM | GI50 (SF-539 CNS): < 10 nM | TGI (SF-539 CNS): 20.4 nM | GI50 (MOLT-4 leukemia): < 10 nM | TGI (MOLT-4 leukemia): < 10 nM | GI50 ([…]-0 renal): < 10 nM | TGI (786-0 renal): 26.2 nM | GI50 (NCI-H23 lung): < 10 nM | TGI (NCI-H23 lung): 14.4 nM | GI50 (RXF 393 renal): < 10 nM | TGI (RXF 393 renal): < 10 nM | GI50 (RPMI-8226 leukemia): < 10 nM | TGI (RPMI-8226 leukemia): < 10 nM | GI50 (A549 NSCLC): < 10 nM | TGI (A549 NSCLC): 116 nM | GI50 (PC-3 prostate): < 10 nM | TGI (PC-3 prostate): 44.4 nM | GI50 (SR leukemia): < 10 nM | TGI (SR leukemia): < 10 nM | GI50 (T-47D breast): 15.6 nM | TGI (T-47D breast): 144 nM | GI50 (SF-295 CNS): < 10 nM | TGI (SF-295 CNS): 67.5 nM | GI50 (A498 renal): < 10 nM | TGI (A498 renal): 15.2 nM | GI50 (UACC-62 melanoma): < 10 nM | TGI (UACC-62 melanoma): < 10 nM | GI50 (SK-MEL-28 melanoma): < 10 nM | TGI (SK-MEL-28 melanoma): < 10 nM | GI50 (CAKI-1 renal): < 10 nM | TGI (CAKI-1 renal): 103 nM | GI50 (TK-10 renal): 16.7 nM | TGI (TK-10 renal): 101 nM | GI50 (HT29 colon): < 10 nM | TGI (HT29 colon): 72.2 nM | GI50 (HOP-92 NSCLC): < 10 nM | TGI (HOP-92 NSCLC): 136 nM | GI50 (OVCAR-4 ovarian): < 10 nM | TGI (OVCAR-4 ovarian): 35.9 nM | GI50 (UACC-257 melanoma): < 10 nM | TGI (UACC-257 melanoma): 15.4 nM | GI50 (U251 glioblastoma): < 10 nM | TGI (U251 glioblastoma): 30.2 nM | GI50 (HCC-2998 colon): < 10 nM | TGI (HCC-2998 colon): 15.8 nM | GI50 (SNB-19 CNS): < 10 nM | TGI (SNB-19 CNS): 1340 nM | GI50 (OVCAR-3 ovarian): < 10 nM | TGI (OVCAR-3 ovarian): 12.9 nM | GI50 (ACHN renal): < 10 nM | TGI (ACHN renal): 88.6 nM | GI50 (BT-549 breast): < 10 nM | TGI (BT-549 breast): < 10 nM | GI50 (NCI-H460 NSCLC): < 10 nM | TGI (NCI-H460 NSCLC): < 10 nM | GI50 (OVCAR-8 ovarian): < 10 nM | TGI (OVCAR-8 ovarian): 27.8 nM | GI50 (OVCAR-5 ovarian): < 10 nM | TGI (OVCAR-5 ovarian): 1310 nM | GI50 (MDA-MB-468 breast): < 10 nM | TGI (MDA-MB-468 breast): < 10 nM | GI50 (HOP-62 NSCLC): < 10 nM | TGI (HOP-62 NSCLC): < 10 nM | GI50 (SN12C renal): < 10 nM | TGI (SN12C renal): 17.2 nM | GI50 (IGROV1 ovarian): < 10 nM | TGI (IGROV1 ovarian): 127 nM | GI50 (NCI-H322M lung): < 10 nM | TGI (NCI-H322M lung): 41.3 nM
